Test results: patent US20240166693A1, “METHODS AND COMPOUNDS FOR MODULATING MYOTONIC DYSTROPY 1” (Design Therapeutics, Inc., priority 2020, published 2024)
Read-outs that look alike come from different tables or passages of the source.

Tested on: Myotonic Dystrophy 1 affected patient fibroblasts (Coriell GM04602; 1600 CTG repeats)
Assay: DM1 foci reduction assay (CAG10-Cy3 FISH, average foci per nucleus)
Assay type: cell-based
Conditions: Homo sapiens, Fibroblast
Experimental: DM1 foci reduction assay methods: Myotonic Dystrophy 1 affected patient fibroblasts (Coriell GM04602; 1600 CTG repeats) and wild type fibroblasts (Coriell GM07492; control line) were cultured separately in Gibco DMEM (1×)+4.5 g/L D-Glucose+L-Glutamine+110 mg/L Sodium Pyruvate, supplemented with 10% FBS and 1× Pen/Strep. Cells were maintained in incubator at 37° C. and 5% CO2 with media refresh every 48-72 hours.
At 90-95% confluency, both cell lines were harvested using Trypl-E then pelleted at 500×g for 5 minutes and were resuspended in media. DM1 fibroblasts were seeded in Agilent 96 well black plates at a density of 5,000 cells/well in 200 μL media; 8 wells were reserved for control fibroblasts. Plates were returned to incubator for 24 hours at 37° C. and 5% CO2.
Compounds were diluted from 10 mM stock to 1 mM in DMSO, then diluted once more to 6 μM (2× concentration) in media. Media was removed from all plates and cells were replenished with 100 μL media. Cells were treated in 8-point dose response, 1:3 fold dilution, 3 μM top dose via addition of 100 μL of 6 μM (2× concentration) compound to the 100 μL media with cells. Plates were returned to incubator for 48-hour time-course experiment at 37° C. and 5% CO2.
Following treatment, compounds were removed, and plates were washed with PBS, then cells were fixed in 75 μL 4% PFA solution for 20 minutes at room temperature. Plates were washed twice with PBS and twice with cold 70% ethanol before permeabilization with 250 μL cold 70% ethanol for 24-72 hours at −20° C.
After permeabilization, plates were washed once with a 30% formamide and 2×SSC buffer and rehydrated in that buffer for 15 minutes at room temperature. Cells were incubated overnight at 37° C. in 75 μL of a hybridization solution containing 30% formamide, 2×SSC, 25 mg/mL dextran sulfate, 2.5 mg/mL BSA, 0.2 μg/mL Herring sperm DNA, 2 mM vanadyl-ribonucleoside complex, and 5 nM CAG10-Cy3 probe.
Plates were washed once with 30% formamide in 2×SSC buffer, then twice with the buffer for 30 minutes at 37° C., 300 RPM in an incubating plate shaker. Cells were stained with 75 μL of 2.5 μg/mL DAPI in PBS for 5 minutes at room temperature. Plates were then washed twice with PBS and stored in 250 μL PBS. Plates were sealed with adhesive foil and wiped down with 70% ethanol.
Cells were imaged on a Cytation5 with a 20× objective sampling from 4 areas of each well. Nuclei were captured under DAPI channel and foci under RFP channel. Plates were analyzed on an average foci per nucleus per well basis.

[1] = 48 h, read-out: Foci Reduction in Fibroblast EC50, 48 h (nM)
[2] = DM1 fibroblasts, 48 h treatment, 8-point dose response, 3 μM top dose, read-out: Foci Reduction in Fibroblast EC50, 48 h

SMILES	EC50 [1]	EC50 [2]
CCN(CC)CCCC[C@H](NC(=O)CCCCOCCOCCNC(=O)c1ccc(C(C)(C)C)cc1)C(=O)N[C@@H](CO)C(=O)NCCOCCOCCOCCOCCOCCNC(=O)CCNC(=O)c1nc(NC(=O)c2cc(NC(=O)CCNC(=O)c3nc(NC(=O)CCCNC(=O)c4cc(NC(=O)c5nc(NC(=O)CCNC(=O)c6cc(NC(=O)c7nccn7C)cn6C)cn5C)cn4C)cn3C)cn2C)cn1C [Compound 141]	100 to 500 nM	
CCN(CC)CCCC[C@H](NC(=O)[C@H](CC(C)C)NC(=O)[C@H](C)NC(=O)[C@H](Cc1ccccc1)NC(=O)c1ccc(C(C)(C)C)cc1)C(=O)N[C@@H](CO)C(=O)NCCOCCOCCOCCOCCOCCNC(=O)CCNC(=O)c1cc(NC(=O)c2nc(NC(=O)CCNC(=O)c3cc(NC(=O)c4nc(NC(=O)CCCNC(=O)c5cc(NC(=O)c6nc(NC(=O)CCNC(=O)c7cc(NC(=O)c8nccn8C)cn7C)cn6C)cn5C)cn4C)cn3C)cn2C)cn1C [Compound 135]	> 500 nM	
Cn1cc(CCn2c(CNCCOCCOCCOCCOCCOCCNC(=O)CCNC(=O)c3nc(NC(=O)c4cc(NC(=O)CCNC(=O)c5nc(NC(=O)CCCNC(=O)c6cc(NC(=O)c7nc(NC(=O)CCNC(=O)c8cc(NC(=O)c9nccn9C)cn8C)cn7C)cn6C)cn5C)cn4C)cn3C)nc(-c3cnn(C)c3)c2-c2ccc(C#N)cc2)cn1 [Compound 172]		> 500 nM
CCN(CC)CCCC[C@H](NC(=O)[C@H](CC(C)C)NC(=O)[C@H](C)NC(=O)[C@H](Cc1ccccc1)NC(=O)c1ccc(C(C)(C)C)cc1)C(=O)N[C@@H](CO)C(=O)NCCOCCOCCOCCOCCN1CCN(C2CCN(C(=O)CCNC(=O)c3nc(NC(=O)c4cc(NC(=O)CCNC(=O)c5nc(NC(=O)CCCNC(=O)c6cc(NC(=O)c7nc(NC(=O)CCNC(=O)c8cc(NC(=O)c9nccn9C)cn8C)cn7C)cn6C)cn5C)cn4C)cn3C)CC2)CC1 [Compound 186]	> 500 nM	
CCN(CC)CCCC[C@H](NC(=O)[C@H](CC(C)C)NC(=O)[C@H](C)NC(=O)[C@H](Cc1ccccc1)NC(=O)c1ccc(C(C)(C)C)cc1)C(=O)N[C@@H](CO)C(=O)NCCOCCOCCOCCOCCOCCNC(=O)c1cc(NC(=O)c2nc(NC(=O)CCNC(=O)c3cc(NC(=O)c4nc(NC(=O)CCCNC(=O)c5cc(NC(=O)c6nc(NC(=O)CCNC(=O)c7cc(NC(=O)c8nccn8C)cn7C)cn6C)cn5C)cn4C)cn3C)cn2C)cn1C [Compound 130]	< 100 nM	
CC(C)c1cnn2c(NCc3ccc(OCCOCCOCCOCCOCCOCCOCCOCCOCCOCCOCCNC(=O)CCNC(=O)c4nc(NC(=O)c5cc(NC(=O)CCNC(=O)c6nc(NC(=O)CCCNC(=O)c7cc(NC(=O)c8nc(NC(=O)CCNC(=O)c9cc(NC(=O)c%10nccn%10C)cn9C)cn8C)cn7C)cn6C)cn5C)cn4C)cc3-n3cccn3)nc(OC3CCCNC3)nc12 (stereo not shown) [Compound 53]		> 500 nM
CCN(CC)CCCC[C@H](NC(=O)[C@H](CC(C)C)NC(=O)[C@H](C)NC(=O)[C@H](Cc1ccccc1)NC(=O)c1ccc(C(C)(C)C)cc1)C(=O)N[C@@H](CO)C(=O)NCCOCCOCCOCCOCCOCCNC(=O)c1cc(NC(=O)c2nc(NC(=O)[C@H](N)CCNC(=O)c3cc(NC(=O)c4nc(NC(=O)CCNC(=O)c5cc(NC(=O)c6nccn6C)cn5C)cn4C)cn3C)cn2C)cn1C [Compound 111]	> 500 nM	
COc1cccc(C(=O)N2CCN(C(=O)CN(C(=O)COCCOCCOCCOCCOCCNC(=O)CCNC(=O)c3nc(NC(=O)c4cc(NC(=O)CCNC(=O)c5nc(NC(=O)CCCNC(=O)c6cc(NC(=O)c7nc(NC(=O)CCNC(=O)c8cc(NC(=O)c9nccn9C)cn8C)cn7C)cn6C)cn5C)cn4C)cn3C)c3ccc(NC(N)=O)c(C)c3)CC2)c1OC [Compound 143]		> 500 nM
CCCCCCNc1nc(NC2CCN(CCOCCOCCOCCOCCOCCNC(=O)CCNC(=O)c3nc(NC(=O)c4cc(NC(=O)CCNC(=O)c5nc(NC(=O)CCCNC(=O)c6cc(NC(=O)c7nc(NC(=O)CCNC(=O)c8cc(NC(=O)c9nccn9C)cn8C)cn7C)cn6C)cn5C)cn4C)cn3C)CC2)c2cc(OC)c(OC)cc2n1 [Compound 190]		> 500 nM
CCN(CC)CCCC[C@H](NC(=O)[C@H](CC(C)C)NC(=O)[C@H](C)NC(=O)[C@H](Cc1ccccc1)NC(=O)c1ccc(C(C)(C)C)cc1)C(=O)N[C@@H](CO)C(=O)Nc1ccc(OCCOCCOCCNC(=O)CCNC(=O)c2nc(NC(=O)c3cc(NC(=O)CCNC(=O)c4nc(NC(=O)CCCNC(=O)c5cc(NC(=O)c6nc(NC(=O)CCNC(=O)c7cc(NC(=O)c8nccn8C)cn7C)cn6C)cn5C)cn4C)cn3C)cn2C)cc1 [Compound 178]	< 100 nM	
CCN(CC)CCCC[C@H](NC(=O)N1CC(c2cnc(CNC(=O)c3ccc(C(C)(C)C)cc3)[nH]2)C1)C(=O)N[C@@H](CO)C(=O)NCCOCCOCCOCCOCCOCCNC(=O)CCNC(=O)c1nc(NC(=O)c2cc(NC(=O)CCNC(=O)c3nc(NC(=O)CCCNC(=O)c4cc(NC(=O)c5nc(NC(=O)CCNC(=O)c6cc(NC(=O)c7nccn7C)cn6C)cn5C)cn4C)cn3C)cn2C)cn1C [Compound 155]	100 to 500 nM	
CCN(CC)CCCC[C@H](NC(=O)[C@H](CC(C)C)NC(=O)[C@H](C)NC(=O)[C@H](Cc1ccccc1)NC(=O)c1ccc(C(C)(C)C)cc1)C(=O)N[C@@H](CO)C(=O)N1CCC(C#CC#CC2CCN(CCOCCOCCOCCNC(=O)CCNC(=O)c3nc(NC(=O)c4cc(NC(=O)CCNC(=O)c5nc(NC(=O)CCCNC(=O)c6cc(NC(=O)c7nc(NC(=O)CCNC(=O)c8cc(NC(=O)c9nccn9C)cn8C)cn7C)cn6C)cn5C)cn4C)cn3C)CC2)CC1 [Compound 180]	< 100 nM	
CCN(CC)CCCC[C@H](NC(=O)[C@H](CC(C)C)NC(=O)[C@H](C)NC(=O)[C@H](Cc1ccccc1)NC(=O)c1ccc(C(C)(C)C)cc1)C(=O)N[C@@H](CO)C(=O)NCCOCCOCCOCCOCCOCCNC(=O)c1cc(NC(=O)c2nc(NC(=O)CCCNC(=O)c3cc(NC(=O)c4nc(NC(=O)CCNC(=O)c5cc(NC(=O)c6nccn6C)cn5C)cn4C)cn3C)cn2C)cn1C [Compound 110]	> 500 nM	
Cn1cc(NC(=O)c2nc(NC(=O)CCNC(=O)c3cc(NC(=O)c4nccn4C)cn3C)cn2C)cc1C(=O)NCCCC(=O)Nc1cn(C)c(C(=O)NCCC(=O)Nc2cc(C(=O)Nc3cn(C)c(C(=O)NCCC(=O)NCCOCCOCCOCCOCCOCCOCCn4cc(CCCCN(Cc5ccc(C(=O)NO)cc5)C(=O)Nc5ccccc5)nn4)n3)n(C)c2)n1 [Compound 126]		> 500 nM
CCCNC(=O)c1cc(NC(=O)c2nc(NC(=O)CCNC(=O)c3cc(NC(=O)c4nc(NC(=O)[C@@H](CCNC(=O)c5cc(NC(=O)c6nc(NC(=O)CCNC(=O)c7cc(NC(=O)c8nccn8C)cn7C)cn6C)cn5C)NC(=O)COCCOCCOCCOCCOCCNC(=O)[C@H](CO)NC(=O)[C@H](CCCCN(CC)CC)NC(=O)[C@H](CC(C)C)NC(=O)[C@H](C)NC(=O)[C@H](Cc5ccccc5)NC(=O)c5ccc(C(C)(C)C)cc5)cn4C)cn3C)cn2C)cn1C [Compound 133]	100 to 500 nM	
CCN(CC)CCCC[C@H](NC(=O)[C@H](CC(C)C)NC(=O)[C@H](C)NC(=O)[C@H](Cc1ccccc1)NC(=O)c1ccc(C(C)(C)C)cc1)C(=O)N[C@@H](CO)C(=O)NCCOCCOCCOCCOCCOCCN(CCCCN=[N+]=[N-])C(=O)CCNC(=O)c1nc(NC(=O)c2cc(NC(=O)CCNC(=O)c3nc(NC(=O)CCCNC(=O)c4cc(NC(=O)c5nc(NC(=O)CCNC(=O)c6cc(NC(=O)c7nccn7C)cn6C)cn5C)cn4C)cn3C)cn2C)cn1C [Compound 189]	< 100 nM	
CC(=O)N[C@@H](CCCCN(C)C1CC2CCC1C2)C(=O)N[C@@H](CO)C(=O)NCCOCCOCCOCCOCCOCCNC(=O)CCNC(=O)c1nc(NC(=O)c2cc(NC(=O)CCNC(=O)c3nc(NC(=O)CCCNC(=O)c4cc(NC(=O)c5nc(NC(=O)CCNC(=O)c6cc(NC(=O)c7nccn7C)cn6C)cn5C)cn4C)cn3C)cn2C)cn1C (stereo partly shown) [Compound 67]	100 to 500 nM	
Cn1cc(NC(=O)c2nc(NC(=O)CCNC(=O)c3cc(NC(=O)c4nccn4C)cn3C)cn2C)cc1C(=O)NCCCC(=O)Nc1cn(C)c(C(=O)NCCC(=O)Nc2cc(C(=O)Nc3cn(C)c(C(=O)NCCC(=O)NCCOCCOCCOCCOCCOCCNC(=O)c4ccc(-c5cnc(NCc6ccco6)n6cnnc56)cc4)n3)n(C)c2)n1 [Compound 60]		100 to 500 nM
COc1cc2nc(N3CCCCC3)nc(NC3CCN(CCOCCOCCOCCOCCOCCNC(=O)CCNC(=O)c4nc(NC(=O)c5cc(NC(=O)CCNC(=O)c6nc(NC(=O)CCCNC(=O)c7cc(NC(=O)c8nc(NC(=O)CCNC(=O)c9cc(NC(=O)c%10nccn%10C)cn9C)cn8C)cn7C)cn6C)cn5C)cn4C)CC3)c2cc1OC [Compound 192]		> 500 nM
